pIC50: −log10 of the molar value. Values belong to the compound of their own block, whether it stands above or below them.
Tested on: 967376-340-R-J2-PDC multicell spheroid viability
Experiment: Anticancer human tumor 967376-340-R-J2-PDC patient-derived colon adenocarcinoma cell line growth inhibition [PI3K]
Conditions: for pIC50: curve of first compound; for viability, T/C: stronger effect = lower value
Outline: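 Viability of mixed-cell spheroids was determined after exposure to pairwise combinations, one partner being inavolisib, alpelisib, duvelisib or copanlisib. Highest tested concentration matched clinical Cmax where known and 10 microM where not, descending in half-log steps.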

[1] = second compound 0.0316 µM, first compound 0.0316 µM
[2] = second compound 0.0316 µM, first compound 0.1 µM
[3] = second compound 0.1 µM, first compound 0.0316 µM
[4] = second compound 0.1 µM, first compound 0.1 µM
[5] = second compound 0.316 µM, first compound 0.0316 µM
[6] = second compound 0.316 µM, first compound 0.1 µM
[7] = second compound 1 µM, first compound 0.0316 µM
[8] = second compound 1 µM, first compound 0.1 µM
[9] = second compound 3.16 µM, first compound 0.0316 µM
[10] = second compound 3.16 µM, first compound 0.1 µM
[11] = second compound 10 µM, first compound 0.0316 µM
[12] = second compound 10 µM, first compound 0.1 µM
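Note: spheroids exposed to agents for 7 days before read-out.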
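Throughout, for viability, T/C: luminescence used as surrogate of cell viability.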

pIC50 (second compound 0.0316 µM): < 5.00 | pIC50 (second compound 0.1 µM): < 5.00 | pIC50 (second compound 0.316 µM): < 5.00 | pIC50 (second compound 1 µM): < 5.00 | pIC50 (second compound 3.16 µM): < 5.00 | pIC50 (second compound 10 µM): < 5.00
SMILES: CC(C)NCC(C(=O)N1CCN(c2ncnc3c2C(C)CC3O)CC1)c1ccc(Cl)cc1 (centres undefined) + CC(Nc1ncnc2nc[nH]c12)c1cc2cccc(Cl)c2c(=O)n1-c1ccccc1
viability, T/C [1]: 100% | viability, T/C [2]: 80.4% | viability, T/C (second compound 0.0316 µM, first compound 0.316 µM): 101% | viability, T/C (second compound 0.0316 µM, first compound 1 µM): 96.1% | viability, T/C (second compound 0.0316 µM, first compound 3.16 µM): 88.6% | viability, T/C (second compound 0.0316 µM, first compound 10 µM): 86.5% | viability, T/C [3]: 102% | viability, T/C [4]: 85% | viability, T/C (second compound 0.1 µM, first compound 0.316 µM): 85.4% | viability, T/C (second compound 0.1 µM, first compound 1 µM): 83.5% | viability, T/C (second compound 0.1 µM, first compound 3.16 µM): 84.8% | viability, T/C (second compound 0.1 µM, first compound 10 µM): 65.1% | viability, T/C [5]: 111% | viability, T/C [6]: 104% | viability, T/C (second compound 0.316 µM, first compound 0.316 µM): 101% | viability, T/C (second compound 0.316 µM, first compound 1 µM): 96.7% | viability, T/C (second compound 0.316 µM, first compound 3.16 µM): 90.7% | viability, T/C (second compound 0.316 µM, first compound 10 µM): 78.5% | viability, T/C [7]: 84.2% | viability, T/C [8]: 90.5% | viability, T/C (second compound 1 µM, first compound 0.316 µM): 83.9% | viability, T/C (second compound 1 µM, first compound 1 µM): 102% | viability, T/C (second compound 1 µM, first compound 3.16 µM): 87.4% | viability, T/C (second compound 1 µM, first compound 10 µM): 77.1% | viability, T/C [9]: 94% | viability, T/C [10]: 64.8% | viability, T/C (second compound 3.16 µM, first compound 0.316 µM): 77.5% | viability, T/C (second compound 3.16 µM, first compound 1 µM): 91.1% | viability, T/C (second compound 3.16 µM, first compound 3.16 µM): 93.1% | viability, T/C (second compound 3.16 µM, first compound 10 µM): 79.4% | viability, T/C [11]: 94.8% | viability, T/C [12]: 90.5% | viability, T/C (second compound 10 µM, first compound 0.316 µM): 68.4% | viability, T/C (second compound 10 µM, first compound 1 µM): 94.2% | viability, T/C (second compound 10 µM, first compound 3.16 µM): 76.2% | viability, T/C (second compound 10 µM, first compound 10 µM): 86.9%

pIC50 (second compound 0.0316 µM): < 7.00 | pIC50 (second compound 0.1 µM): < 7.00 | pIC50 (second compound 0.316 µM): < 7.00 | pIC50 (second compound 1 µM): < 7.00 | pIC50 (second compound 3.16 µM): < 7.00 | pIC50 (second compound 10 µM): < 7.00
SMILES: CC(C)n1nc(-c2ccc3oc(N)nc3c2)c2c(N)ncnc21 + CC(Nc1ncnc2nc[nH]c12)c1cc2cccc(Cl)c2c(=O)n1-c1ccccc1
viability, T/C (second compound 0.0316 µM, first compound 0.000316 µM): 109% | viability, T/C (second compound 0.0316 µM, first compound 0.001 µM): 92.2% | viability, T/C (second compound 0.0316 µM, first compound 0.00316 µM): 96.6% | viability, T/C (second compound 0.0316 µM, first compound 0.01 µM): 98.6% | viability, T/C [1]: 97.5% | viability, T/C [2]: 59.1% | viability, T/C (second compound 0.1 µM, first compound 0.000316 µM): 90.1% | viability, T/C (second compound 0.1 µM, first compound 0.001 µM): 94.5% | viability, T/C (second compound 0.1 µM, first compound 0.00316 µM): 90.6% | viability, T/C (second compound 0.1 µM, first compound 0.01 µM): 103% | viability, T/C [3]: 80.8% | viability, T/C [4]: 69.9% | viability, T/C (second compound 0.316 µM, first compound 0.000316 µM): 113% | viability, T/C (second compound 0.316 µM, first compound 0.001 µM): 104% | viability, T/C (second compound 0.316 µM, first compound 0.00316 µM): 99.9% | viability, T/C (second compound 0.316 µM, first compound 0.01 µM): 98.5% | viability, T/C [5]: 77% | viability, T/C [6]: 54.7% | viability, T/C (second compound 1 µM, first compound 0.000316 µM): 124% | viability, T/C (second compound 1 µM, first compound 0.001 µM): 97% | viability, T/C (second compound 1 µM, first compound 0.00316 µM): 89.9% | viability, T/C (second compound 1 µM, first compound 0.01 µM): 90.1% | viability, T/C [7]: 71% | viability, T/C [8]: 53% | viability, T/C (second compound 3.16 µM, first compound 0.000316 µM): 101% | viability, T/C (second compound 3.16 µM, first compound 0.001 µM): 94.3% | viability, T/C (second compound 3.16 µM, first compound 0.00316 µM): 93.9% | viability, T/C (second compound 3.16 µM, first compound 0.01 µM): 80.4% | viability, T/C [9]: 81.3% | viability, T/C [10]: 62.2% | viability, T/C (second compound 10 µM, first compound 0.000316 µM): 93% | viability, T/C (second compound 10 µM, first compound 0.001 µM): 81.4% | viability, T/C (second compound 10 µM, first compound 0.00316 µM): 76.7% | viability, T/C (second compound 10 µM, first compound 0.01 µM): 88% | viability, T/C [11]: 73.3% | viability, T/C [12]: 61.3%
